Test [1] deals with T1, RubS5 (Streptomyces sp. KIB-H033, UniProt A0A1I9S3Q5).
T1 construct: expressed and purified; rubrolone gene cluster
T1 sequence (A0A1I9S3Q5 1-289): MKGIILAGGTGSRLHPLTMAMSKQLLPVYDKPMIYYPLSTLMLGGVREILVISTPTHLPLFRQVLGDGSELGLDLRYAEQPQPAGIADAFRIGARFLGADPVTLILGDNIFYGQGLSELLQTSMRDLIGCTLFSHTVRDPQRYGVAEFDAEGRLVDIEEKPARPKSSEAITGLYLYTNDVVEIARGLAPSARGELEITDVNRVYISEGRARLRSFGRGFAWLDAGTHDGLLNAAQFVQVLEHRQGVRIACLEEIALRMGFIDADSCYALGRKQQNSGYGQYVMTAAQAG
Kind of test: HPLC and 1H-NMR of product. Conditions: sugar phosphate co-substrate (D-glucose-1-phosphate in text, D-glucose-6-phosphate in Fig. 2 legend). The class given is biochemical.

The test system of test [2] is T2, RblE.
T2 construct: rubterolone gene cluster
Kind of test: spectrophotometric assay, decrease of NADPH absorbance. The class given is biochemical.

What is called Km is the substrate concentration at which the rate is half of its maximum.

For the molecule `Cc1cn([C@H]2C[C@H](O)[C@@H](COP(=O)(O)OP(=O)(O)OP(=O)(O)O)O2)c(=O)[nH]c1=O` [TTP], in test [1], the “HPLC and 1H-NMR of product” value is “buffer with TTP and D-glucose-6-phosphate. (b) RubS5 reaction”. In the case of `Cc1cn([C@H]2C[C@H](O)[C@@H](COP(=O)(O)OP(=O)(O)O[C@H]3O[C@H](C)C(=O)[C@H](O)[C@H]3O)O2)c(=O)[nH]c1=O` [compound 1, TDP-4-keto-6-deoxy-D-glucose], in test [2], the Michaelis constant (Km) was determined as 35 µM.

The values are drawn from paper PMC8152690, “Biosynthetic access to the rare antiarose sugar via an unusual reductase-epimerase” (Chemical Science, 2020).
